Source: US10251869B2, “Compositions and methods of inhibiting metallo-β-lactamases” (priority 2014, dated 2019)
Values after ≈ are worked out from the molar mass of the structure shown.

Experiments:
E. coli pBC SK(−) = assay: MIC by agar dilution, E. coli DH10B host with empty phagemid; type: cell-based; conditions: Escherichia coli, MHA
Method: (§1) E. coli DH10B (Invitrogen, Carlsbad, Calif.) was used as a host strain for pBCSK (−) blaVIM-2, and to obtain a mutant library at position 228 by site-saturation mutagenesis, using the QuickChange XL Site-directed Mutagenesis Kit (Stratagene). Briefly, primers that capture all 19 variants at MBL position 228 were designed and PCR mutagenic reactions were conducted using pBCSK (−) blaVIM-2 as a template, and transformed into E. coli DH10B. Single colonies were selected for plasmid purification, and successful mutagenesis was verified by complete DNA sequencing.
(§2) The effect of Zn^2+ availability was also tested by agar dilution using MH supplemented with 250 μM ZnSO4 or 5 μM EDTA. Reported values are the mode of at least 3 biological replicates.

[1] = tested on: E. coli DH10B pBCSK(−) producing VIM-2 (228R); assay: MIC by agar dilution, E. coli DH10B producing VIM-2; type: cell-based; conditions: Escherichia coli, MHA, read-out: MIC
From the text: A forward primer containing the SacI restriction site and a reverse primer with the BamHI restriction site were used to amplify blaVIM-2 including the pET24a(+) ribosomal binding site, using plasmid pET-24a(+)-blaVIM-2 as template. The product was then subcloned into phagemid pBCSK (−) (Agilent (Santa Clara, Calif.)) using the above restriction sites, and thus placing the blaVIM-2 open reading frame under control of the lac promoter, to yield phagemid pBCSK (−) blaVIM-2.
as §1, §2

[2] = tested on: E. coli DH10B pBCSK(−) producing VIM-24 (R228L); assay: MIC by agar dilution, E. coli DH10B producing VIM-24; type: cell-based; conditions: Escherichia coli, MHA, read-out: MIC
Method: as §1, §2

[3] = tested on: E. coli DH10B pBCSK(−) producing R228K variant; assay: MIC by agar dilution, E. coli DH10B producing VIM-2 R228K; type: cell-based; conditions: Escherichia coli, MHA
Method: as §1, §2

[4] = tested on: E. coli DH10B pBCSK(−) producing R228P variant; assay: MIC by agar dilution, E. coli DH10B producing VIM-2 R228P; type: cell-based; conditions: Escherichia coli, MHA
Method: as §1, §2

[5] = tested on: E. coli DH10B pBCSK(−) producing R228M variant; assay: MIC by agar dilution, E. coli DH10B producing VIM-2 R228M; type: cell-based; conditions: Escherichia coli, MHA
Method: as §1, §2

[6] = tested on: E. coli DH10B pBCSK(−) producing R228Q variant; assay: MIC by agar dilution, E. coli DH10B producing VIM-2 R228Q; type: cell-based; conditions: Escherichia coli, MHA
Method: as §1, §2

[7] = tested on: E. coli DH10B pBCSK(−) producing R228Y variant; assay: MIC by agar dilution, E. coli DH10B producing VIM-2 R228Y; type: cell-based; conditions: Escherichia coli, MHA
Method: as §1, §2

VIM-2 = target: T1, VIM-2 (Pseudomonas aeruginosa, UniProt Q9K2N0); assay: BTZ inhibition kinetics of nitrocefin hydrolysis by VIM-2; type: biochemical, P. aeruginosa; conditions: for k−2: rate constant for breakdown of E*I; for k2: rate constant for formation of E*I
T1 construct: made in house; host or cells: E. coli BL21(DE3) pLys, plasmid pET-24a(+)-blaVIM-2-S21
From the text: (§3) Analysis of BTZ inhibition kinetics. Models involving one, or two-step slow binding were considered to analyze BTZ inhibition of NFC hydrolysis by VIM-2 and VIM-24 (Scheme 1).
(§4) Here E represents the free enzyme, and I the free inhibitor, EI is the final enzyme-inhibitor complex for a single step slow binding mechanism, and E*I is the enzyme-inhibitor complex formed after conformational changes in a two-step slow binding mechanism. Therefore, the dissociation constant for the EI complex (Ki), also called the inhibitor constant, is defined as Ki=k−1/k1; the dissociation constant for the E*I complex (Ki′) is defined as Ki′=k−2/k2, and the overall dissociation constant for the two-step mechanism (Ki*) is defined as Ki*=Ki/(1+([…])).
(§5) The Ki for each inhibitor was determined by direct competition assays under steady-state conditions. The initial velocity was measured in the presence of a constant concentration of enzyme (3 nM for VIM-2 and 4 nM for VIM-24) with increasing concentrations of inhibitor (5-60 μM) against a fixed concentration (5 x KM) of the indicator substrate, NCF, as previously described (42-44). The reactions were started by addition of VIM-2 or VIM-24 to substrate or to mixtures of substrate and inhibitor. Data were linearized by plotting inverse initial steady-state velocities (1/v0) against inhibitor concentration (I). Ki (observed) was determined by dividing the value for the y intercept by the slope of the line. Ki determinations were corrected to account for the affinity of NCF for the β-lactamase according to equation 3.
(§6) Measurements of association rate constants for inhibitor binding were carried out at 25° C. in 10 mM HEPES at pH 7.5 supplemented with 200 mM NaCl, 50 μM […] and 50 μg/ml BSA, in the presence of several concentrations of each compound. Reactions were then initiated by the addition of β-lactamase (3 nM VIM-2 or 4 nM VIM-24) to a mixture of 50 μM NCF and each BTZ without pre-incubation. Inhibitor association rate constants were estimated from linear extrapolation of the observed rate constant for inhibition (kobs), which was obtained by fitting progress curves of NFC hydrolysis to Eq. 4:
(§7) As previously described, the linear dependence of kobs vs. [I] at limiting I concentration approximates second-order rate constant k2/Ki. The observed second-order rate constant also includes an adjustment for competition between inhibitor and substrate binding (Eq. 5).
(§8) Also, vs calculated from the progress curves of NCF hydrolysis for each concentration of inhibitor were used to determine Ki*, according to the relationship shown in equation 6 (5). The value reported is the mean of three velocities±SD.
(§9) To further test the time-dependent inhibition mechanism of inhibitor binding, assays using dilutions of pre-formed complexes were performed. For these experiments, 1 μM of enzyme was incubated with varying concentrations of the inhibitor which allowed for complete inactivation of the enzyme during the 5 min incubation at 25° C. The reactions were then diluted 2,000-fold in 10 mM HEPES at pH 7.5 supplemented with 200 mM NaCl, 50 μM […] and 50 μg/ml BSA, which contained 50 μM NCF. Reactivation of the enzyme based on NCF hydrolysis was monitored over time. Control reaction with the free enzyme was performed in the same fashion.

VIM-24 [8] = target: T2, VIM-24 (Escherichia coli, UniProt Q5U7L7, R205L); assay: BTZ inhibition kinetics of nitrocefin hydrolysis by VIM-24; type: biochemical; conditions: for k−2: rate constant for breakdown of E*I; for k2: rate constant for formation of E*I
T2 construct: which corresponds to cleavage after residues 20 (plus an additional Met residue on the N-terminus); made in house; host or cells: E. coli BL21(DE3) pLys, plasmid pET-24a(+)-blaVIM-24-S21
From the text: as §3, §4, §5, §6, §7, §8, §9

VIM-24 [9] = target: T2, VIM-24; assay: Steady-state kinetic parameters of substrate hydrolysis by VIM-24; type: biochemical; conditions: pH 7.5, 25° C., average ± SD, triplicate
From the text: Steady-state reactions were followed using an Agilent (Santa Clara, Calif.) 8453 Diode Array spectrophotometer as previously described. […] For ceftazidime and cefepime, a 0.2-cm path length quartz cuvette was used. A nonlinear leastsquares fit of the data (Henri Michaelis-Menten equation) using Enzfitter (Biosoft Corporation, Ferguson, Mo.) was employed to obtain the steady-state kinetic parameters Vmax and KM according to equation 1.
In this equation the observed first-order rate constant k=kcat/KM*[E].

[10] = initial complex EI, NCF as reporter substrate
[11] = overall dissociation constant of two-step mechanism (E*I)

SMILES	Ki (VIM-2; [10]) [nM]	Ki (VIM-2; [11]) [nM]	k−2 (VIM-2)	k2 (VIM-2)	k−2 (VIM-24 [8])	k2 (VIM-24 [8])	further results
CC1(C)S[C@@H]2[C@H](NC(=O)[C@H](N)c3ccccc3)C(=O)N2[C@H]1C(=O)O [Ampicillin]	–	–	–	–	–	–	MIC (E. coli pBC SK(−)): 4 µg/mL (≈ 11.4 µM); MIC [1]: 512 µg/mL (≈ 1470 µM); MIC [2]: 512 µg/mL (≈ 1470 µM); MIC [3]: 32 µg/mL (≈ 91.6 µM); MIC [4]: 32 µg/mL (≈ 91.6 µM); MIC [5]: 1020 µg/mL (≈ 2930 µM); MIC [6]: 1020 µg/mL (≈ 2930 µM); MIC [7]: 1020 µg/mL (≈ 2930 µM)
CC1(C)SC2CSC(CS)N2C1C(=O)O [D-VC26]	14000 ± 1000	100 ± 30	0.0006 ± 4 × 10^−4 s^−1	0.09 ± 4 × 10^−3 s^−1	0.00007 ± 1 × 10^−5 s^−1	0.01 ± 3 × 10^−3 s−1	–
CC1(C)SC2CSC(CS)N2C1C(=O)O [L-VC26]	3800 ± 200	250 ± 10	0.001 ± 1 × 10^−3 s^−1	0.02 ± 1 × 10^−3 s^−1	–	0.04 ± 2 × 10^−3 s−1	–
O=C(Cc1cccs1)N[C@@H]1C(=O)N2C(C(=O)O)=C(/C=C/c3ccc([N+](=O)[O-])cc3[N+](=O)[O-])CS[C@H]12 [Nitrocefin]	–	–	–	–	–	–	Kcat (VIM-24 [9]): 171 ± 4 s⁻¹; Km (VIM-24 [9]): 11 ± 1 µM
O=C(O)[C@H]1CS[C@@H]2CS[C@@H](CS)N12 [D-CS319]	5400 ± 400	180 ± 20	0.0003 ± 1 × 10^−4 s^−1	0.01 ± 1 × 10^−3 s^−1	0.004 ± 1 × 10^−3 s^−1	0.07 ± 4 × 10^−3 s−1	–
